According to US10780074B2, “Compounds and uses thereof” (Sunovion Pharmaceuticals Inc., priority 2017, dated 2020):
Where a name gives a salt, the structure may show the parent alone. Read-outs that look alike come from different tables or passages of the source.

Assays:
MES-induced seizures = assay: Mouse Maximum Electroshock Assay (MES); type: in vivo; conditions: male CF-1 mice, fewer than 4 animals tested, given as N/F
Excerpt: Mouse Maximum Electroshock Assay (MES)
Mouse Maximum Electroshock Assay (MES) is a model for generalized tonic-clonic seizures and provides an indication of a compound's ability to prevent seizure spread when all neuronal circuits in the brain are maximally active. These seizures are highly reproducible and are electrophysiologically consistent with human seizures. For all MES tests, 60 Hz of alternating current (50 mA in mice and 150 mA in rats) was delivered for 0.2 sec by corneal electrodes which had been primed with an electrolyte solution containing an anesthetic agent (0.5% tetracaine HCl). An animal was considered “protected” from MES-induced seizures upon abolition of the hindlimb tonic extensor component of the seizure. Initial screen for anticonvulsant activity in the MES was performed with N=4 male CF-1 mice/dose/time point. The default doses and time-points were 3 and 30 mg/kg at 0.25 and 0.5 hr following administration. Quantification of the ED50 was conducted at the time of peak effect (TPE). To determine the TPE, groups of N=4 mice were treated with the investigational compound at 0.25, 0.5, 1.0, 2.0 and 4.0 hrs prior to MES testing, or based on time-points from prior studies. […] Quantitation of the ED50 was conducted the same as described for mice above.

[1] = tested on: behaviors of compound-treated mice; assay: Neuropharmacological Assay (SmartCube); type: in vivo; conditions: for minimal effective dose: Mus musculus, ip, 0.25 h, dose having 50% or more total activity in SmartCube, read-out: MED (minimal effective dose)
Method in brief: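 Behavioral signatures were captured automatically by video, and each drug class received a probability for the best of three i.p. doses given 15 min pre-test (vehicle: Pharmasolve/PEG/propylene glycol). Potency is given as MED, the lowest mpk dose (typically 0.3–30) reaching 50% or more total activity.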

[2] = i.p. 15 min before behavioral test, most efficacious dose(s) of 3 doses
[3] = SmartCube, i.p. 15 min before test, most efficacious dose(s)

| Structure (SMILES) | minimal effective dose [1] [mg/kg] | AD: ADHD (probability that activity matches class) [1, 3] | AG: analgesic (probability that activity matches class) [1, 3] | AX: anxiolytic (probability that activity matches class) [1, 3] | CE: cognitive enhancer (probability that activity matches class) [1, 3] | DP: anti-depressant (probability that activity matches class) [1, 3] | MS: mood stabilizer (probability that activity matches class) [1, 3] | PS: anti-psychotic (probability that activity matches class) [1, 3] | SD: sedative hypnotic (probability that activity matches class) [1, 3] | UN: uncharacterized CNS activity (probability that activity matches class) [1, 3] | further results |
| --- | --- | --- | --- | --- | --- | --- | --- | --- | --- | --- | --- |
| CNC[C@H]1OCCc2c(-c3cnccn3)cccc21 (single isomer, unassigned) [Compound 81] |  |  |  |  |  |  |  |  |  |  | Seizure protection at 30 mg/kg (animals protected/animals tested) (MES-induced seizures): 3/3 animals tested; minimal effective dose ([1]; i.p.): ≤ 3 mg/kg; AD: ADHD (probability that activity matches class) [1, 2]: ++ (5% ≤ ++ <25%); AG: analgesic (probability that activity matches class) [1, 2]: + (LOQ ≤ + <5%); AX: anxiolytic (probability that activity matches class) [1, 2]: ++ (5% ≤ ++ <25%); CE: cognitive enhancer (probability that activity matches class) [1, 2]: + (LOQ ≤ + <5%); DP: anti-depressant (probability that activity matches class) [1, 2]: ++++ (50% ≤ ++++); MS: mood stabilizer (probability that activity matches class) [1, 2]: + (LOQ ≤ + <5%); PS: anti-psychotic (probability that activity matches class) [1, 2]: + (LOQ ≤ + <5%); SD: sedative hypnotic (probability that activity matches class) [1, 2]: + (LOQ ≤ + <5%); UN: uncharacterized CNS activity (probability that activity matches class) [1, 2]: +++ (25% ≤ +++ <50%) |
| CNC[C@@H]1OCCc2c(-c3cnco3)cccc21 (single isomer, unassigned) [Compound 96, hydrochloride salt] |  |  |  |  |  |  |  |  |  |  | Seizure protection at 30 mg/kg (animals protected/animals tested) (MES-induced seizures): 2/2 animals tested; minimal effective dose ([1]; i.p.): ≤ 3 mg/kg; AD: ADHD (probability that activity matches class) [1, 2]: ++ (5% ≤ ++ <25%); AG: analgesic (probability that activity matches class) [1, 2]: + (LOQ ≤ + <5%); AX: anxiolytic (probability that activity matches class) [1, 2]: +++ (25% ≤ +++ <50%); CE: cognitive enhancer (probability that activity matches class) [1, 2]: + (LOQ ≤ + <5%); DP: anti-depressant (probability that activity matches class) [1, 2]: ++++ (50% ≤ ++++); MS: mood stabilizer (probability that activity matches class) [1, 2]: + (LOQ ≤ + <5%); PS: anti-psychotic (probability that activity matches class) [1, 2]: + (LOQ ≤ + <5%); SD: sedative hypnotic (probability that activity matches class) [1, 2]: ++++ (50% ≤ ++++); UN: uncharacterized CNS activity (probability that activity matches class) [1, 2]: + (LOQ ≤ + <5%) |
| NC[C@@H]1OCCc2c1cccc2-n1ccnc1 [Compound 184, (R)-(5-(1H-Imidazol-1-yl)isochroman-1-yl)methanamine hydrochloride salt] | 10 to 30 | + (LOQ ≤ + <5%) | + (LOQ ≤ + <5%) | ++ (5% ≤ ++ <25%) | + (LOQ ≤ + <5%) | + (LOQ ≤ + <5%) | + (LOQ ≤ + <5%) | + (LOQ ≤ + <5%) | + (LOQ ≤ + <5%) | + (LOQ ≤ + <5%) |  |
| NC[C@H]1OCCc2c1cccc2-n1ccnc1 [Compound 185, (S)-(5-(1H-Imidazol-1-yl)isochroman-1-yl)methanamine hydrochloride salt] | 10 to 30 | + (LOQ ≤ + <5%) | + (LOQ ≤ + <5%) | ++ (5% ≤ ++ <25%) | + (LOQ ≤ + <5%) | ++ (5% ≤ ++ <25%) | + (LOQ ≤ + <5%) | + (LOQ ≤ + <5%) | + (LOQ ≤ + <5%) | + (LOQ ≤ + <5%) |  |
| CNC[C@@H]1OCCc2c1cccc2-n1cccn1 [Compound 186, (R)-1-(5-(1H-pyrazol-1-yl)isochroman-1-yl)-N-methylmethanamine] | 10 to 30 | + (LOQ ≤ + <5%) | + (LOQ ≤ + <5%) | ++ (5% ≤ ++ <25%) | + (LOQ ≤ + <5%) | + (LOQ ≤ + <5%) | + (LOQ ≤ + <5%) | + (LOQ ≤ + <5%) | + (LOQ ≤ + <5%) | + (LOQ ≤ + <5%) |  |
| CNC[C@H]1OCCc2c1cccc2-n1cccn1 [Compound 187, (S)-1-(5-(1H-pyrazol-1-yl)isochroman-1-yl)-N-methylmethanamine] | 3 to 10 | ++ (5% ≤ ++ <25%) | + (LOQ ≤ + <5%) | + (LOQ ≤ + <5%) | + (LOQ ≤ + <5%) | ++++ (50% ≤ ++++) | + (LOQ ≤ + <5%) | + (LOQ ≤ + <5%) | + (LOQ ≤ + <5%) | + (LOQ ≤ + <5%) |  |
| NC[C@@H]1OCCc2c1cccc2-n1cccn1 [Compound 188, (R)-(5-(1H-pyrazol-1-yl)isochroman-1-yl)methanamine hydrochloride salt] | 10 to 30 | ++ (5% ≤ ++ <25%) | + (LOQ ≤ + <5%) | ++ (5% ≤ ++ <25%) | + (LOQ ≤ + <5%) | + (LOQ ≤ + <5%) | + (LOQ ≤ + <5%) | + (LOQ ≤ + <5%) | + (LOQ ≤ + <5%) | ++++ (50% ≤ ++++) |  |
| NC[C@H]1OCCc2c1cccc2-n1cccn1 [Compound 189, (S)-(5-(1H-pyrazol-1-yl)isochroman-1-yl)methanamine hydrochloride salt] | 10 to 30 | ++ (5% ≤ ++ <25%) | + (LOQ ≤ + <5%) | ++ (5% ≤ ++ <25%) | + (LOQ ≤ + <5%) | ++ (5% ≤ ++ <25%) | + (LOQ ≤ + <5%) | + (LOQ ≤ + <5%) | + (LOQ ≤ + <5%) | ++++ (50% ≤ ++++) |  |
